Measurements reported in ChEMBL document CHEMBL5038625, “Application of the dual-tail approach for the design and synthesis of novel Thiopyrimidine-Benzenesulfonamide hybrids as selective carbonic anhydrase inhibitors” (Eur J Med Chem, 2022).

Columns and labels:
[1] = target: Carbonic anhydrase 9 (Homo sapiens, UniProt Q16790); assay: Inhibition of human CA9 preincubated for 15 mins by phenol red dye based stopped flow CO2 hydration assay
[2] = test system: SF-539; assay: Antiproliferative activity against human SF-539 cells assessed as cell growth inhibition at 10 uM incubated for 24 hrs by sulforhodamine B assay; format: functional; settings: read-out: GI
[3] = test system: HL-60; assay: Antiproliferative activity against human HL-60 cells assessed as cell growth inhibition at 10 uM incubated for 24 hrs by sulforhodamine B assay; format: functional; settings: read-out: GI
[4] = test system: RPMI-8226; assay: Antiproliferative activity against human RPMI-8226 cells assessed as cell growth inhibition at 10 uM incubated for 24 hrs by sulforhodamine B assay; format: functional; settings: read-out: GI
[5] = test system: SR; assay: Antiproliferative activity against human SR cells assessed as cell growth inhibition at 10 uM incubated for 24 hrs by sulforhodamine B assay; format: functional; settings: read-out: GI
[6] = test system: A549; assay: Antiproliferative activity against human A549 cells assessed as cell growth inhibition at 10 uM incubated for 24 hrs by sulforhodamine B assay; format: functional; settings: read-out: GI
[7] = test system: EKVX; assay: Antiproliferative activity against human EKVX cells assessed as cell growth inhibition at 10 uM incubated for 24 hrs by sulforhodamine B assay; format: functional; settings: read-out: GI
[8] = test system: HOP-62; assay: Antiproliferative activity against human HOP-62 cells assessed as cell growth inhibition at 10 uM incubated for 24 hrs by sulforhodamine B assay; format: functional; settings: read-out: GI
[9] = test system: NCI-H460; assay: Antiproliferative activity against human NCI-H460 cells assessed as cell growth inhibition at 10 uM incubated for 24 hrs by sulforhodamine B assay; format: functional; settings: read-out: GI
[10] = test system: COLO 205; assay: Antiproliferative activity against human COLO 205 cells assessed as cell growth inhibition at 10 uM incubated for 24 hrs by sulforhodamine B assay; format: functional; settings: read-out: GI
[11] = test system: HCT-116; assay: Antiproliferative activity against human HCT-116 cells assessed as cell growth inhibition at 10 uM incubated for 24 hrs by sulforhodamine B assay; format: functional; settings: read-out: GI
[12] = test system: HT-29; assay: Antiproliferative activity against human HT-29 cells assessed as cell growth inhibition at 10 uM incubated for 24 hrs by sulforhodamine B assay; format: functional; settings: read-out: GI
[13] = test system: SF-295; assay: Antiproliferative activity against human SF-295 cells assessed as cell growth inhibition at 10 uM incubated for 24 hrs by sulforhodamine B assay; format: functional; settings: read-out: GI
[14] = test system: Malme-3M; assay: Antiproliferative activity against human Malme-3M cells assessed as cell growth inhibition at 10 uM incubated for 24 hrs by sulforhodamine B assay; format: functional; settings: read-out: GI
[15] = test system: M14; assay: Antiproliferative activity against human M14 cells assessed as cell growth inhibition at 10 uM incubated for 24 hrs by sulforhodamine B assay; format: functional; settings: read-out: GI
[16] = test system: SK-MEL-2; assay: Antiproliferative activity against human SK-MEL-2 cells assessed as cell growth inhibition at 10 uM incubated for 24 hrs by sulforhodamine B assay; format: functional; settings: read-out: GI
[17] = test system: UACC-257; assay: Antiproliferative activity against human UACC-257 cells assessed as cell growth inhibition at 10 uM incubated for 24 hrs by sulforhodamine B assay; format: functional; settings: read-out: GI
[18] = test system: UACC-62; assay: Antiproliferative activity against human UACC-62 cells assessed as cell growth inhibition at 10 uM incubated for 24 hrs by sulforhodamine B assay; format: functional; settings: read-out: GI
[19] = test system: OVCAR-3; assay: Antiproliferative activity against human OVCAR-3 cells assessed as cell growth inhibition at 10 uM incubated for 24 hrs by sulforhodamine B assay; format: functional; settings: read-out: GI
[20] = test system: OVCAR-4; assay: Antiproliferative activity against human OVCAR-4 cells assessed as cell growth inhibition at 10 uM incubated for 24 hrs by sulforhodamine B assay; format: functional; settings: read-out: GI
[21] = test system: OVCAR-8; assay: Antiproliferative activity against human OVCAR-8 cells assessed as cell growth inhibition at 10 uM incubated for 24 hrs by sulforhodamine B assay; format: functional; settings: read-out: GI
[22] = test system: SK-OV-3; assay: Antiproliferative activity against human SK-OV-3 cells assessed as cell growth inhibition at 10 uM incubated for 24 hrs by sulforhodamine B assay; format: functional; settings: read-out: GI
[23] = test system: ACHN; assay: Antiproliferative activity against human ACHN cells assessed as cell growth inhibition at 10 uM incubated for 24 hrs by sulforhodamine B assay; format: functional; settings: read-out: GI
[24] = test system: CAKI-1; assay: Antiproliferative activity against human CAKI-1 cells assessed as cell growth inhibition at 10 uM incubated for 24 hrs by sulforhodamine B assay; format: functional; settings: read-out: GI
[25] = test system: RXF 393; assay: Antiproliferative activity against human RXF 393 cells assessed as cell growth inhibition at 10 uM incubated for 24 hrs by sulforhodamine B assay; format: functional; settings: read-out: GI
[26] = test system: PC-3; assay: Antiproliferative activity against human PC-3 cells assessed as cell growth inhibition at 10 uM incubated for 24 hrs by sulforhodamine B assay; format: functional; settings: read-out: GI
[27] = test system: MCF7; assay: Antiproliferative activity against human MCF7 cells assessed as cell growth inhibition at 10 uM incubated for 24 hrs by sulforhodamine B assay; format: functional; settings: read-out: GI
[28] = test system: BT-549; assay: Antiproliferative activity against human BT-549 cells assessed as cell growth inhibition at 10 uM incubated for 24 hrs by sulforhodamine B assay; format: functional; settings: read-out: GI
[29] = test system: T47D; assay: Antiproliferative activity against human T47D cells assessed as cell growth inhibition at 10 uM incubated for 24 hrs by sulforhodamine B assay; format: functional; settings: read-out: GI
[30] = test system: MCF7; assay: Antiproliferative activity against human MCF7 cells assessed as reduction in cell viability incubated for 24 hrs by sulforhodamine B assay; format: functional, cell-based; settings: MCF7, 24 h
[31] = test system: MDA-MB-231; assay: Antiproliferative activity against human MDA-MB-231 cells assessed as reduction in cell viability incubated for 24 hrs by sulforhodamine B assay; format: functional, cell-based; settings: MDA-MB-231, 24 h
[32] = test system: SW-620; assay: Antiproliferative activity against human SW-620 cells assessed as reduction in cell viability incubated for 24 hrs by sulforhodamine B assay; settings: SW-620, 24 h
[33] = test system: A549; assay: Antiproliferative activity against human A549 cells assessed as reduction in cell viability incubated for 24 hrs by sulforhodamine B assay; settings: A549, 24 h
[34] = test system: SK-OV-3; assay: Antiproliferative activity against human SK-OV-3 cells assessed as reduction in cell viability incubated for 24 hrs by sulforhodamine B assay; settings: SK-OV-3, 24 h
[35] = test system: MCF7; assay: Cell cycle arrest in human MCF7 cells assessed as accumulation at G1 phase incubated for 48 hrs by propidium iodide staining based flow cytometric analysis (reference value: 42.84 %); format: functional
[36] = test system: MCF7; assay: Cell cycle arrest in human MCF7 cells assessed as accumulation at G2 phase incubated for 48 hrs by propidium iodide staining based flow cytometric analysis (reference value: 20.73 %); format: functional
[37] = test system: MDA-MB-231; assay: Cell cycle arrest in human MDA-MB-231 cells assessed as accumulation at G1 phase incubated for 48 hrs by propidium iodide staining based flow cytometric analysis (reference value: 55.63 %); format: functional
[38] = test system: MDA-MB-231; assay: Cell cycle arrest in human MDA-MB-231 cells assessed as accumulation at G2 phase incubated for 48 hrs by propidium iodide staining based flow cytometric analysis (reference value: 20.65 %); format: functional
[39] = test system: MDA-MB-231; assay: Cell cycle arrest in human MDA-MB-231 cells assessed as accumulation at sub G1 phase incubated for 48 hrs by propidium iodide staining based flow cytometric analysis (reference value: 0.2 %); format: functional
[40] = test system: MCF7; assay: Induction of apoptosis in human MCF cells assessed as viable cells measured after 48 hrs by Annexin-V-FITC/propidium iodide staining based flow cytometry (reference value: 98.15%); format: functional
[41] = test system: MCF7; assay: Induction of apoptosis in human MCF cells assessed as late apoptotic cells measured after 48 hrs by Annexin-V-FITC/propidium iodide staining based flow cytometry (reference value: 0.82%); format: functional

For `COc1ccc(OC)c(-c2nc(SCC(=O)c3ccc(Br)cc3)nc(Nc3ccc(S(N)(=O)=O)cc3)c2C#N)c1`, the Ki [1] was 0.0868 µM, the inhibition of growth at 10 µM [2] was 71.6% and the inhibition of growth at 10 µM [3] was 74.1%. For the same compound, the inhibition of growth at 10 µM [4] was 48.8%, the inhibition of growth at 10 µM [5] was 86.1% and the inhibition of growth at 10 µM [6] was 32.5%. It also gave an inhibition of growth at 10 µM [7] of 36.3%, an inhibition of growth at 10 µM [8] of 51.6% and an inhibition of growth at 10 µM [9] of 79.2%. For the same compound, the inhibition of growth at 10 µM [10] was 31.6%, the inhibition of growth at 10 µM [11] was 84.6% and the inhibition of growth at 10 µM [12] was 72.8%. The inhibition of growth at 10 µM [13] was 66.9%, the inhibition of growth at 10 µM [14] was 49.8% and the inhibition of growth at 10 µM [15] was 57.5%. The inhibition of growth at 10 µM [16] was 69.6%, the inhibition of growth at 10 µM [17] was 43.1% and the inhibition of growth at 10 µM [18] was 57.3%. The inhibition of growth at 10 µM [19] was 49.4%, the inhibition of growth at 10 µM [20] was 42.6% and the inhibition of growth at 10 µM [21] was 37.2%. The inhibition of growth at 10 µM [22] was 20.1%, the inhibition of growth at 10 µM [23] was 44.1% and the inhibition of growth at 10 µM [24] was 65.6%. It also gave an inhibition of growth at 10 µM [25] of 82.7%, an inhibition of growth at 10 µM [26] of 64.7% and an inhibition of growth at 10 µM [27] of 71.1%. For the same compound, the inhibition of growth at 10 µM [28] was 50.6%, the inhibition of growth at 10 µM [29] was 28.9% and the IC50 [30] was 2.5 µM. It also gave an IC50 [31] of 2.4 µM, an IC50 [32] of 4.5 µM and an IC50 [33] of 16.5 µM. It also gave an IC50 [34] of 29.9 µM, an Activity [35] of 5.77% and an Activity [36] of 50.47%. For the same compound, the Activity [37] was 39.7%, the Activity [38] was 30.07% and the Activity [39] was 11.52%. For the same compound, the Activity [40] was 88.17% and the Activity [41] was 3.96%.
